B1: S. cerevisiae Cdc34 residues 1-195 with A141K (Cdc34^A141K) (enzyme, UniProt P14682 1-195, looked up)
chain: MSSRKSTASSLLLRQYRELTDPKKAIPSFHIELEDDSNIFTWNIGVMVLNEDSIYHGGFFKAQMRFPEDFPFSPPQFRFTPAIYHPNVYRDGRLCISILHQSGDPMTDEPDAETWSPVQTVESVLISIVSLLEDPNINSPKNVDAAVDYRKNPEQYKQRVKMEVERSKQDIPKGFIMPTSESAYISQSKLDEPES
modifications: Lys141 (A141K) isopeptide-linked to Gly76 of Ub(t); Cys95 disulfide-linked to Cys600 of Uba1
notes: Cdc34 (ubiquitin E2), S. cerevisiae, residues 1-195 (Cdc34^ΔCT) with A141K; Stands in the structure as the Cdc34^A141K-Ub(t) thioester mimetic cross-linked to Uba1; also called E2; Cdc34^ΔCT A141K; source: E. coli BL21 (DE3) Codon Plus, purified (Ni-NTA, Superdex 75, MonoQ); not shown: His6, N-terminal, cleaved

Assays:
[1] = target: T1, Uba1–Cdc34^A141K–Ub(t) (covalently trapped E1–E2–ubiquitin thioester mimetic) (Saccharomyces cerevisiae, UniProt P22515); test: X-ray crystallography, […] Å; conditions: crystals grown with 1 mM ATP, 5 mM MgCl2 and excess Ub; ATP binding pocket of Uba1 adenylation domain; AMP in seven of eight copies
T1 construct: Uba1 11-1024 and Cdc34 1-195 (A141K), N-terminal TEV-cleavable 6xHis, E. coli BL21(DE3); Uba1 C600-Cdc34 C95 disulfide; Ub Gly76 isopeptide-linked to Cdc34 K141; with Ubiquitin-conjugating enzyme E2-34 kDa; Ubiquitin

[2] = target: T2, S. cerevisiae Uba1 residues 11-1024 (S. cerevisiae, UniProt P22515 11-1024, Cys600 disulfide-linked to Cys95 of Cdc34 (in the crystallised complex)); test: crystal structure; covalently trapped Uba1–Cdc34^A141K–Ub(t) complex (Cys600–Cys95 disulfide, A141K–Gly76 isopeptide bond), 100 μM, crystallised with free Ub (200 μM), 1 mM ATP and 5 mM MgCl2 at 18 °C; 3.43 Å; eight copies, four open and four closed; conditions: both partners purified
T2 construct: Uba1 (ubiquitin E1), S. cerevisiae, residues 11-1024; In the structure it is covalently trapped with Cdc34^A141K-Ub(t) through a disulfide between the catalytic cysteines; also called E1; ScUba1; source: E. coli BL21 (DE3) Codon Plus, purified (Ni-NTA, Superdex 200, MonoQ); not shown: His6, N-terminal, cleaved
T2 sequence (P22515 11-1024): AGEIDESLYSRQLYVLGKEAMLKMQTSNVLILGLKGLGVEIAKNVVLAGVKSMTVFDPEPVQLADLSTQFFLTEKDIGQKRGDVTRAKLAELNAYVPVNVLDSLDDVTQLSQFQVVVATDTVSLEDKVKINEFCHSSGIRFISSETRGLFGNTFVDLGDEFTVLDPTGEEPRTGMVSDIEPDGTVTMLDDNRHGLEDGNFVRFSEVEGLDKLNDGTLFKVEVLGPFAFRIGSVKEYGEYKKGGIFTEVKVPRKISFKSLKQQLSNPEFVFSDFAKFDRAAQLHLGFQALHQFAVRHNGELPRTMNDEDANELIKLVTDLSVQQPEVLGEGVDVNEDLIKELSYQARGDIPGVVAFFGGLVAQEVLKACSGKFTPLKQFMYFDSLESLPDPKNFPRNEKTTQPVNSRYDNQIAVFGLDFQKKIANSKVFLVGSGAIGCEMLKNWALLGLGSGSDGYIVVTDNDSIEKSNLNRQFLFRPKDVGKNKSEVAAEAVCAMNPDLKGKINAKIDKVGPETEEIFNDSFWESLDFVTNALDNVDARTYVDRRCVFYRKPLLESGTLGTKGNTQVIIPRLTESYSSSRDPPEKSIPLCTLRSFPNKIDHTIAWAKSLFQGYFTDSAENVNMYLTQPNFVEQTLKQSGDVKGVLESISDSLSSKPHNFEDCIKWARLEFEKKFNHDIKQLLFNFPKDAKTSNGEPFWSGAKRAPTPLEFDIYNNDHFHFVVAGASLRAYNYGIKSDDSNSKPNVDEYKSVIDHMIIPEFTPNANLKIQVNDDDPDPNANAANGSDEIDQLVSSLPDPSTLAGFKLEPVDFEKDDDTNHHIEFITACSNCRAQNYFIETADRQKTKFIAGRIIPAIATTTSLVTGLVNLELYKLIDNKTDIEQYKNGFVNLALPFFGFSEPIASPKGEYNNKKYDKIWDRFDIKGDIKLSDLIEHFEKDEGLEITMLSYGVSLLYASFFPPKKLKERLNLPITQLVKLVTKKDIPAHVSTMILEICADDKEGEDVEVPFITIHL

Row | Molecule | X-ray crystallography, 3.43 Å [1] | binding result [2]
1 | Nc1ncnc2c1ncn2[C@@H]1O[C@H](COP(=O)(O)O)[C@@H](O)[C@H]1O [AMP] | strong electron density into which AMP (but not the β and γ phosphates of ATP) | –
2 | B1 | – | binds
